Reference: PubChem BioAssay AID1963979 (Molecular Pharmacology Branch, DTP, NCI, 2024)
Each block holds one molecule with its values, some of them ahead of it.

Test system: 361931-004-R-J1-PDC multicell spheroid viability
Assay: Anticancer human tumor 361931-004-R-J1-PDC patient-derived colon adenocarcinoma cell line growth inhibition [PI3K]
Conditions: for IC50: curve of first compound; for viability, T/C: stronger effect = lower value
How it was run: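 Complex 3D spheroids (cancer cells + endothelial HUVEC + mesenchymal stem cells); drug pairs of targeted agent x inavolisib/alpelisib/duvelisib/copanlisib; half-log series from ~Cmax, max 10 microM if Cmax unknown; endpoint viability.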

[1] = second compound 0.0316 µM, first compound 0.0316 µM
[2] = second compound 0.0316 µM, first compound 0.1 µM
[3] = second compound 0.0316 µM, first compound 0.316 µM
[4] = second compound 0.0316 µM, first compound 1 µM
[5] = second compound 0.0316 µM, first compound 3.16 µM
[6] = second compound 0.0316 µM, first compound 10 µM
[7] = second compound 0.1 µM, first compound 0.0316 µM
[8] = second compound 0.1 µM, first compound 0.1 µM
[9] = second compound 0.1 µM, first compound 0.316 µM
[10] = second compound 0.1 µM, first compound 1 µM
[11] = second compound 0.1 µM, first compound 3.16 µM
[12] = second compound 0.1 µM, first compound 10 µM
[13] = second compound 0.316 µM, first compound 0.0316 µM
[14] = second compound 0.316 µM, first compound 0.1 µM
[15] = second compound 0.316 µM, first compound 0.316 µM
[16] = second compound 0.316 µM, first compound 1 µM
[17] = second compound 0.316 µM, first compound 3.16 µM
[18] = second compound 0.316 µM, first compound 10 µM
[19] = second compound 1 µM, first compound 0.0316 µM
[20] = second compound 1 µM, first compound 0.1 µM
[21] = second compound 1 µM, first compound 0.316 µM
[22] = second compound 1 µM, first compound 1 µM
[23] = second compound 1 µM, first compound 3.16 µM
[24] = second compound 1 µM, first compound 10 µM
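Note: spheroids exposed to agents for seven days before readout.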

IC50 (second compound 0.00316 µM): 5.54 µM | IC50 (second compound 0.01 µM): 4.87 µM | IC50 (second compound 0.0316 µM): 4.49 µM | IC50 (second compound 0.1 µM): 3.68 µM | IC50 (second compound 0.316 µM): < 0.0316 µM | IC50 (second compound 1 µM): < 0.0316 µM
SMILES: CC1(C)CCC(Nc2ncc(C(F)(F)F)c(-c3c[nH]c4c(P(C)(C)=O)c(C#N)ccc34)n2)CN1 (stereo unspecified) + COc1c(OCCCN2CCOCC2)ccc2c3n(c(=NC(=O)c4cnc(N)nc4)nc12)CCN3
viability, T/C (second compound 0.00316 µM, first compound 0.0316 µM): 85.5% | viability, T/C (second compound 0.00316 µM, first compound 0.1 µM): 94.7% | viability, T/C (second compound 0.00316 µM, first compound 0.316 µM): 83.8% | viability, T/C (second compound 0.00316 µM, first compound 1 µM): 92.7% | viability, T/C (second compound 0.00316 µM, first compound 3.16 µM): 85.1% | viability, T/C (second compound 0.00316 µM, first compound 10 µM): 12.9% | viability, T/C (second compound 0.01 µM, first compound 0.0316 µM): 92.4% | viability, T/C (second compound 0.01 µM, first compound 0.1 µM): 92.7% | viability, T/C (second compound 0.01 µM, first compound 0.316 µM): 82% | viability, T/C (second compound 0.01 µM, first compound 1 µM): 83.1% | viability, T/C (second compound 0.01 µM, first compound 3.16 µM): 73.6% | viability, T/C (second compound 0.01 µM, first compound 10 µM): 12.7% | viability, T/C [1]: 80.7% | viability, T/C [2]: 72.5% | viability, T/C [3]: 67.7% | viability, T/C [4]: 66.3% | viability, T/C [5]: 67.1% | viability, T/C [6]: 12% | viability, T/C [7]: 63.4% | viability, T/C [8]: 56.6% | viability, T/C [9]: 59.3% | viability, T/C [10]: 51.6% | viability, T/C [11]: 56.6% | viability, T/C [12]: 8.34% | viability, T/C [13]: 39.4% | viability, T/C [14]: 49.5% | viability, T/C [15]: 43.8% | viability, T/C [16]: 44.2% | viability, T/C [17]: 42.6% | viability, T/C [18]: 5.6% | viability, T/C [19]: 20.4% | viability, T/C [20]: 18.4% | viability, T/C [21]: 19.9% | viability, T/C [22]: 24.3% | viability, T/C [23]: 19.9% | viability, T/C [24]: 2.05%

IC50 (second compound 0.0316 µM): > 10 µM | IC50 (second compound 0.1 µM): > 10 µM | IC50 (second compound 0.316 µM): > 10 µM | IC50 (second compound 1 µM): > 10 µM | IC50 (second compound 3.16 µM): > 10 µM | IC50 (second compound 10 µM): > 10 µM
SMILES: CNC(=O)c1ccc(N2C(=S)N(c3ccc(C#N)c(C(F)(F)F)c3)C(=O)C2(C)C)cc1F + Cc1nc(NC(=O)N2CCCC2C(N)=O)sc1-c1ccnc(C(C)(C)C(F)(F)F)c1
viability, T/C [1]: 113% | viability, T/C [2]: 101% | viability, T/C [3]: 91% | viability, T/C [4]: 90.8% | viability, T/C [5]: 98% | viability, T/C [6]: 99.6% | viability, T/C [7]: 106% | viability, T/C [8]: 101% | viability, T/C [9]: 87.4% | viability, T/C [10]: 94.4% | viability, T/C [11]: 93.3% | viability, T/C [12]: 86.6% | viability, T/C [13]: 99.2% | viability, T/C [14]: 90.8% | viability, T/C [15]: 100% | viability, T/C [16]: 104% | viability, T/C [17]: 104% | viability, T/C [18]: 95.8% | viability, T/C [19]: 94.1% | viability, T/C [20]: 93.5% | viability, T/C [21]: 80% | viability, T/C [22]: 94.5% | viability, T/C [23]: 94.1% | viability, T/C [24]: 85.6% | viability, T/C (second compound 3.16 µM, first compound 0.0316 µM): 83.2% | viability, T/C (second compound 3.16 µM, first compound 0.1 µM): 82.9% | viability, T/C (second compound 3.16 µM, first compound 0.316 µM): 91.3% | viability, T/C (second compound 3.16 µM, first compound 1 µM): 84.2% | viability, T/C (second compound 3.16 µM, first compound 3.16 µM): 98% | viability, T/C (second compound 3.16 µM, first compound 10 µM): 70.3% | viability, T/C (second compound 10 µM, first compound 0.0316 µM): 70.2% | viability, T/C (second compound 10 µM, first compound 0.1 µM): 67.1% | viability, T/C (second compound 10 µM, first compound 0.316 µM): 59.3% | viability, T/C (second compound 10 µM, first compound 1 µM): 69.1% | viability, T/C (second compound 10 µM, first compound 3.16 µM): 76.1% | viability, T/C (second compound 10 µM, first compound 10 µM): 45.2%

IC50 (second compound 0.0316 µM): > 3 µM | IC50 (second compound 0.1 µM): 2.12 µM | IC50 (second compound 0.316 µM): 1.17 µM | IC50 (second compound 1 µM): 0.741 µM | IC50 (second compound 3.16 µM): 0.204 µM | IC50 (second compound 10 µM): 0.0309 µM
SMILES: Cn1cnc2c(F)c(Nc3ccc(Br)cc3Cl)c(C(=O)NOCCO)cc21 + Cc1nc(NC(=O)N2CCCC2C(N)=O)sc1-c1ccnc(C(C)(C)C(F)(F)F)c1
viability, T/C (second compound 0.0316 µM, first compound 0.00949 µM): 96.2% | viability, T/C (second compound 0.0316 µM, first compound 0.03 µM): 95.8% | viability, T/C (second compound 0.0316 µM, first compound 0.0949 µM): 82.2% | viability, T/C (second compound 0.0316 µM, first compound 0.3 µM): 78.8% | viability, T/C (second compound 0.0316 µM, first compound 0.949 µM): 75.8% | viability, T/C (second compound 0.0316 µM, first compound 3 µM): 48.3% | viability, T/C (second compound 0.1 µM, first compound 0.00949 µM): 107% | viability, T/C (second compound 0.1 µM, first compound 0.03 µM): 106% | viability, T/C (second compound 0.1 µM, first compound 0.0949 µM): 83.7% | viability, T/C (second compound 0.1 µM, first compound 0.3 µM): 84.5% | viability, T/C (second compound 0.1 µM, first compound 0.949 µM): 70.4% | viability, T/C (second compound 0.1 µM, first compound 3 µM): 41% | viability, T/C (second compound 0.316 µM, first compound 0.00949 µM): 103% | viability, T/C (second compound 0.316 µM, first compound 0.03 µM): 89.5% | viability, T/C (second compound 0.316 µM, first compound 0.0949 µM): 79.2% | viability, T/C (second compound 0.316 µM, first compound 0.3 µM): 74% | viability, T/C (second compound 0.316 µM, first compound 0.949 µM): 57.1% | viability, T/C (second compound 0.316 µM, first compound 3 µM): 29.7% | viability, T/C (second compound 1 µM, first compound 0.00949 µM): 95.9% | viability, T/C (second compound 1 µM, first compound 0.03 µM): 92.7% | viability, T/C (second compound 1 µM, first compound 0.0949 µM): 75.6% | viability, T/C (second compound 1 µM, first compound 0.3 µM): 68% | viability, T/C (second compound 1 µM, first compound 0.949 µM): 44.4% | viability, T/C (second compound 1 µM, first compound 3 µM): 27.5% | viability, T/C (second compound 3.16 µM, first compound 0.00949 µM): 82.7% | viability, T/C (second compound 3.16 µM, first compound 0.03 µM): 77.6% | viability, T/C (second compound 3.16 µM, first compound 0.0949 µM): 61.9% | viability, T/C (second compound 3.16 µM, first compound 0.3 µM): 40% | viability, T/C (second compound 3.16 µM, first compound 0.949 µM): 29.3% | viability, T/C (second compound 3.16 µM, first compound 3 µM): 6.45% | viability, T/C (second compound 10 µM, first compound 0.00949 µM): 59% | viability, T/C (second compound 10 µM, first compound 0.03 µM): 48.4% | viability, T/C (second compound 10 µM, first compound 0.0949 µM): 35% | viability, T/C (second compound 10 µM, first compound 0.3 µM): 12.5% | viability, T/C (second compound 10 µM, first compound 0.949 µM): 4.2% | viability, T/C (second compound 10 µM, first compound 3 µM): 1.47%
